In patent US12459951B2, “Compounds that interact with RAS superfamily proteins for treatment of cancers, inflammatory diseases, rasopathies, and fibrotic disease” (SHY Therapeutics, LLC, priority 2022, dated 2025):

How the values were obtained:
[1] = test system: MAPK p38 phosphorylation; assay: MAPK p38 Activation Assay (western blot), Panc-1; assay type: cell-based, human; conditions: at 10 μM, Panc-1 pancreatic cancer cell line; starred symbols = activation
How it was run: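 Panc-1 cells (KRas G12D) were treated with compound for 6 h at 37 °C, at 10 μM or as serial dilutions for IC50, with 0.3% DMSO. Method 1 used overnight serum-starved cells (0.5% FBS) stimulated with 1.5 ng/ml EGF for 15 min; Method 2 used unstimulated cells in 10% FBS. Phospho-p38 (Thr180/Tyr182) was detected by western blot.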

[2] = target: T1, cdc42 (Homo sapiens, UniProt P60953); assay: Cdc42 GTP Binding Domain Inhibition Assay; conditions: read-out: Cdc42: % inh.
T1 construct: made in house
Procedure: (§1) Protocol for Cdc42 and Rheb GTP Binding Domain Inhibition Assay
(§2) The following method was developed as specific assay for cdc42 and Rheb proteins.
(§3) • 25 mM Tris-HCl, pH 7.4 • 27 mM KCl • 137 mM NaCl • 1 mM MgCl2 • 1 mM DTT Buffer-II: • 50 mM Tris-HCl, pH 7.0 • 1 mM MgCl2 • 1 mM DTT
(§4) The small GTPases proteins cdc42 and Rheb were expressed as His-tagged proteins. For the assay, the cdc42 and Rheb purified small GTPases proteins were diluted in Buffer-I or Buffer-II to a final concentration of 10-30 μg/mL. 200 μL of each diluted protein was added to a nickel-coated 96-well plate and incubated overnight at […]. Then the protein solution was discarded and 200 μL of Buffer-I or Buffer-II was added to each well in the presence of 1% DMSO. Compounds to be tested were added to the protein-coated wells at final concentration of 20 μM, and incubated for 3 hours at room temperature with and without 10-30 μg/mL of Sos added to the final hour of the incubation. When performing IC50 measurements a serial dilution of all tested concentrations was added. Then Cy3-GTP or Cy5-GTP was added to each well to a final concentration of 100 nM. The labeled GTP was incubated for 45 minutes at room temperature. Following GTP incubation, wells were washed 3× in Buffer-I or Buffer-II and 200 μL of Buffer-I or Buffer-II was added to each well. Following washes, the amount of bound labeled-GTP was measured using a SpectraMax M3 (Molecular Devices).

[3] = target: T2, Rheb (Homo sapiens, UniProt Q15382); assay: Rheb GTP Binding Domain Inhibition Assay; conditions: read-out: Rheb: % inh.
T2 construct: made in house
Procedure: as §1, §2, §3, §4

T2 sequence (Q15382 whole entry, the tested form may be a part): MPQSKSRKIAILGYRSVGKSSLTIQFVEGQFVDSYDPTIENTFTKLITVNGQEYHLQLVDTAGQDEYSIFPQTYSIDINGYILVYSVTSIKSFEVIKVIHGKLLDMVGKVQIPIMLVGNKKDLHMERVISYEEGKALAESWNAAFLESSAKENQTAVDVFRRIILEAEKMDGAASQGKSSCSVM
T1 sequence (P60953 whole entry, the tested form may be a part): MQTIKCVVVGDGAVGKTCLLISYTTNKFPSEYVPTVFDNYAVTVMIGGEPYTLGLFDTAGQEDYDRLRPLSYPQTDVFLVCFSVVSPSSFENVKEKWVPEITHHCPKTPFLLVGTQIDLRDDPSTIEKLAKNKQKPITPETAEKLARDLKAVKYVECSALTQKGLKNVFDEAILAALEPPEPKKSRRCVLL

COc1ccc(-c2cn3nc(-c4nccn4C)nc(Nc4cc(OC)ncn4)c3c2C)cn1 [Compound 66, 6-(6-Methoxypyridin-3-yl)-N-(6-methoxypyrimidin-4-yl)-5-methyl-2-(1-methyl-1H-imidazol-2-yl)pyrrolo[2,1-f][1,2,4]triazin-4-amine]
% inh of MAPK p38 in Panc-1 [1]: H* (H* ≥ 100% activation)
inhibition at 20 µM [2]: 76 to 100%
inhibition at 20 µM [3]: 50 to 75%

COC1CCCN(c2nc(-c3ccccn3)nn3cc(-c4ccn(C(C)C)n4)c(-c4ccccc4)c23)C1 (racemic) [Compound 27, rac 6-(1-Isopropyl-1H-pyrazol-3-yl)-4-(3-methoxypiperidin-1-yl)-5-phenyl-2-(pyridin-2-yl)pyrrolo[2,1-f][1,2,4]triazine]
% inh of MAPK p38 in Panc-1 [1]: H* (H* ≥ 100% activation)

Cc1c(-c2ccn(C(C)C)n2)cn2nc(-c3nccn3C)nc(Nc3ncco3)c12 [Compound 60, N-(6-(1-Isopropyl-1H-pyrazol-3-yl)-5-methyl-2-(1-methyl-1H-imidazol-2-yl)pyrrolo[2,1-f][1,2,4]triazin-4-yl)oxazol-2-amine]
% inh of MAPK p38 in Panc-1 [1]: H* (H* ≥ 100% activation)
inhibition at 20 µM [2]: 1 to 25%
inhibition at 20 µM [3]: 26 to 49%

COCCCNc1nc(-c2nccn2C)nn2cc(-c3cccc(OC)c3Cl)c(-c3ccccc3)c12 [Compound 30, 6-(2-Chloro-3-methoxyphenyl)-N-(3-methoxypropyl)-2-(1-methyl-1H-imidazol-2-yl)-5-phenylpyrrolo[2,1-f][1,2,4]triazin-4-amine]
% inh of MAPK p38 in Panc-1 [1]: F (F = 31-74% inhibition)

Cc1c(-c2ccn(C(C)C)n2)cn2nc(-c3nccn3C)nc(Nc3ccn(C)n3)c12 [Compound 61, 6-(1-Isopropyl-1H-pyrazol-3-yl)-5-methyl-2-(1-methyl-1H-imidazol-2-yl)-N-(1-methyl-1H-pyrazol-3-yl)pyrrolo[2,1-f][1,2,4]triazin-4-amine]
% inh of MAPK p38 in Panc-1 [1]: H* (H* ≥ 100% activation)
inhibition at 20 µM [2]: 76 to 100%
inhibition at 20 µM [3]: 76 to 100%

CO[C@H]1CC[C@@H](Nc2nc(-c3nccn3C)nn3cc(-c4ccn(C(C)C)n4)c(C(C)C)c23)C1 (racemic) [Compound 36, rac 5-Isopropyl-6-(1-isopropyl-1H-pyrazol-3-yl)-N-((1R,3S)-3-methoxycyclopentyl)-2-(1-methyl-1H-imidazol-2-yl)pyrrolo[2,1-f][1,2,4]triazin-4-amine]
% inh of MAPK p38 in Panc-1 [1]: H* (H* ≥ 100% activation)

COc1cnc(Nc2nc(-c3nccn3C)nn3cc(-c4ccn(C(C)C)n4)c(C)c23)nc1 [Compound 56, 6-(1-Isopropyl-1H-pyrazol-3-yl)-N-(5-methoxypyrimidin-2-yl)-5-methyl-2-(1-methyl-1H-imidazol-2-yl)pyrrolo[2,1-f][1,2,4]triazin-4-amine]
% inh of MAPK p38 in Panc-1 [1]: H* (H* ≥ 100% activation)
inhibition at 20 µM [2]: 26 to 49%
inhibition at 20 µM [3]: 50 to 75%

Cc1c(-c2ccn(C(C)C)n2)cn2nc(-c3nccn3C)nc(Nc3cc(C4CC4)no3)c12 [Compound 69, 3-Cyclopropyl-N-(6-(1-isopropyl-1H-pyrazol-3-yl)-5-methyl-2-(1-methyl-1H-imidazol-2-yl)pyrrolo[2,1-f][1,2,4]triazin-4-yl)isoxazol-5-amine]
% inh of MAPK p38 in Panc-1 [1]: H* (H* ≥ 100% activation)
inhibition at 20 µM [2]: 0%
inhibition at 20 µM [3]: 1 to 25%

COC[C@@H]1CC[C@@H]1CNc1nc(-c2ccccn2)nn2cc(-c3ccn(C(C)C)n3)c(-c3ccccc3)c12 (racemic) [Compound 26, rac 6-(1-Isopropyl-1H-pyrazol-3-yl)-N-(((1S,2R)-2-(methoxymethyl)cyclobutyl)methyl)-5-phenyl-2-(pyridin-2-yl)pyrrolo[2,1-f][1,2,4]triazin-4-amine]
% inh of MAPK p38 in Panc-1 [1]: H* (H* ≥ 100% activation)

COc1cc(Nc2nc(-c3nccn3C)nn3cc(-c4cccnc4)c(C)c23)ncn1 [Compound 48, N-(6-Methoxypyrimidin-4-yl)-5-methyl-2-(1-methyl-1H-imidazol-2-yl)-6-(pyridin-3-yl)pyrrolo[2,1-f][1,2,4]triazin-4-amine]
inhibition at 20 µM [2]: 50 to 75%
inhibition at 20 µM [3]: 50 to 75%

COc1cccc(-c2cn3nc(-c4nccn4C)nc(O)c3c2-c2ccccc2)c1Cl [Compound 28, 6-(2-Chloro-3-methoxyphenyl)-2-(1-methyl-1H-imidazol-2-yl)-5-phenylpyrrolo[2,1-f][1,2,4]triazin-4-ol]
% inh of MAPK p38 in Panc-1 [1]: H* (H* ≥ 100% activation)

COc1cccc(-c2cn3nc(-c4nccn4C)nc(N[C@@H]4CC[C@H](OC)C4)c3c2-c2ccccc2)c1Cl (racemic) [Compound 33, rac 6-(2-Chloro-3-methoxyphenyl)-N-((1R,3S)-3-methoxycyclopentyl)-2-(1-methyl-1H-imidazol-2-yl)-5-phenylpyrrolo[2,1-f][1,2,4]triazin-4-amine]
% inh of MAPK p38 in Panc-1 [1]: H (H = 100% inhibition)

Cc1c(-c2ccn(C(C)C)n2)cn2nc(-c3nccn3C)nc(Nc3cc(C4CC4)n[nH]3)c12 [Compound 68, N-(3-Cyclopropyl-1H-pyrazol-5-yl)-6-(1-isopropyl-1H-pyrazol-3-yl)-5-methyl-2-(1-methyl-1H-imidazol-2-yl)pyrrolo[2,1-f][1,2,4]triazin-4-amine]
inhibition at 20 µM [2]: 76 to 100%
inhibition at 20 µM [3]: 76 to 100%

COc1ccc(Nc2nc(-c3nccn3C)nn3cc(-c4ccn(C(C)C)n4)c(C)c23)nn1 [Compound 74, 6-(1-Isopropyl-1H-pyrazol-3-yl)-N-(6-methoxypyridazin-3-yl)-5-methyl-2-(1-methyl-1H-imidazol-2-yl)pyrrolo[2,1-f][1,2,4]triazin-4-amine]
inhibition at 20 µM [2]: 0%
inhibition at 20 µM [3]: 0%

COCCNc1nc(-c2nccn2C)nn2cc(-c3cccc(OC)c3Cl)c(-c3ccccc3)c12 [Compound 29, 6-(2-Chloro-3-methoxyphenyl)-N-(2-methoxyethyl)-2-(1-methyl-1H-imidazol-2-yl)-5-phenylpyrrolo[2,1-f][1,2,4]triazin-4-amine]
% inh of MAPK p38 in Panc-1 [1]: H (H = 100% inhibition)

COc1cc(Nc2nc(-c3nccn3C)nn3cc(-c4ccncc4)c(C)c23)ncn1 [Compound 49, N-(6-Methoxypyrimidin-4-yl)-5-methyl-2-(1-methyl-1H-imidazol-2-yl)-6-(pyridin-4-yl)pyrrolo[2,1-f][1,2,4]triazin-4-amine]
inhibition at 20 µM [2]: 1 to 25%
inhibition at 20 µM [3]: 26 to 49%

COc1cncnc1Nc1nc(-c2nccn2C)nn2cc(-c3ccn(C(C)C)n3)c(C)c12 [Compound 73, 6-(1-Isopropyl-1H-pyrazol-3-yl)-N-(5-methoxypyrimidin-4-yl)-5-methyl-2-(1-methyl-1H-imidazol-2-yl)pyrrolo[2,1-f][1,2,4]triazin-4-amine]
inhibition at 20 µM [2]: 50 to 75%
inhibition at 20 µM [3]: 50 to 75%

CO[C@H]1CC[C@@H](Nc2nc(-c3ccccn3)nn3cc(-c4ccn(C(C)C)n4)c(-c4ccccc4)c23)C1 (racemic) [Compound 24, rac 6-(1-Isopropyl-1H-pyrazol-3-yl)-N-((1R,3S)-3-methoxycyclopentyl)-5-phenyl-2-(pyridin-2-yl)pyrrolo[2,1-f][1,2,4]triazin-4-amine]
% inh of MAPK p38 in Panc-1 [1]: H* (H* ≥ 100% activation)

COCC1CCN(c2nc(-c3ccccn3)nn3cc(-c4ccn(C(C)C)n4)c(-c4ccccc4)c23)C1 (racemic) [Compound 25, rac 6-(1-Isopropyl-1H-pyrazol-3-yl)-4-(3-(methoxymethyl)pyrrolidin-1-yl)-5-phenyl-2-(pyridin-2-yl)pyrrolo[2,1-f][1,2,4]triazine]
% inh of MAPK p38 in Panc-1 [1]: H* (H* ≥ 100% activation)

COc1cccc(-c2cn3nc(-c4nccn4C)nc(N[C@H]4C[C@@H](OC)C4)c3c2-c2ccccc2)c1Cl [Compound 31, 6-(2-Chloro-3-methoxyphenyl)-N-((1s,3s)-3-methoxycyclobutyl)-2-(1-methyl-1H-imidazol-2-yl)-5-phenylpyrrolo[2,1-f][1,2,4]triazin-4-amine]
% inh of MAPK p38 in Panc-1 [1]: H* (H* ≥ 100% activation)

COc1cccc(Nc2nc(-c3nccn3C)nn3cc(-c4ccn(C(C)C)n4)c(-c4ccccc4)c23)n1 [Compound 23, 6-(1-Isopropyl-1H-pyrazol-3-yl)-N-(6-methoxypyridin-2-yl)-2-(1-methyl-1H-imidazol-2-yl)-5-phenylpyrrolo[2,1-f][1,2,4]triazin-4-amine]
% inh of MAPK p38 in Panc-1 [1]: H* (H* ≥ 100% activation)

COCCNc1nc(-c2nccn2C)nn2cc(-c3ccn(C(C)C)n3)c(C(C)C)c12 [Compound 35, 5-Isopropyl-6-(1-isopropyl-1H-pyrazol-3-yl)-N-(2-methoxyethyl)-2-(1-methyl-1H-imidazol-2-yl)pyrrolo[2,1-f][1,2,4]triazin-4-amine]
% inh of MAPK p38 in Panc-1 [1]: H* (H* ≥ 100% activation)
